From PubChem BioAssay (NCI)
Where “and” joins values, the source holds several entries; their conditions need not be identical. Identical values can stand only once.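 Five concentrations, 48 hours, 96-well plates. GI50 is the concentration that inhibits growth by half. Definition used: TGI = concentration required for complete inhibition of growth.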

Experiments:
Assay in all cases: NCI tumour cell line growth inhibition, 48 h
HT29 colon = tested on: HT29 colon
RPMI-8226 leukemia = tested on: RPMI-8226 leukemia
LOX IMVI melanoma = tested on: LOX IMVI melanoma
NCI-H226 lung = tested on: NCI-H226 lung
HL-60(TB) leukemia = tested on: HL-60(TB) leukemia
CCRF-CEM leukemia = tested on: CCRF-CEM leukemia
NCI/ADR-RES ovarian = tested on: NCI/ADR-RES ovarian
SR leukemia = tested on: SR leukemia
CAKI-1 renal = tested on: CAKI-1 renal
PC-3 prostate = tested on: PC-3 prostate

Structure (SMILES): CC1OC(CC(=O)O)Cc2c1c(O)c1c(O)cc(-c3cc(=O)c4c(=O)c5c(c(=O)c=4c3=O)CC(CC(=O)O)OC5C)c(O)c1c2O (stereo not given)
- GI50 (HT29 colon): 26.1 µM
- TGI (HT29 colon): 55.6 µM and 94.7 µM
- GI50 (RPMI-8226 leukemia): 20.9 µM
- TGI (RPMI-8226 leukemia): 81.6 µM and 68.7 µM
- TGI (LOX IMVI melanoma): 36.5 µM
- GI50 (NCI-H226 lung): 46.8 µM
- TGI (NCI-H226 lung): > 75.4 µM
- TGI (HL-60(TB) leukemia): > 49.1 µM
- TGI (CCRF-CEM leukemia): > 48.2 µM
- GI50 (NCI/ADR-RES ovarian): 59.6 µM
- TGI (SR leukemia): 53.9 µM
- GI50 (CAKI-1 renal): 23.6 µM
- TGI (CAKI-1 renal): 87.5 µM and 52.7 µM
- TGI (PC-3 prostate): 64.3 µM

Structure (SMILES): CCOC(=O)c1c(-c2ccc(OC)c(O)c2)c(C#N)c(=S)n(C2OC(COC(C)=O)C(OC(C)=O)C(OC(C)=O)C2OC(C)=O)c1-c1ccccc1 (stereo not given)
- GI50 (HT29 colon): 36.7 µM and > 100 µM
- TGI (HT29 colon): > 100 µM
- GI50 (RPMI-8226 leukemia): 36.5 µM and 6.1 µM
- TGI (RPMI-8226 leukemia): 81.5 µM and > 100 µM
- GI50 (LOX IMVI melanoma): 34.8 µM and > 100 µM
- TGI (LOX IMVI melanoma): > 100 µM
- TGI (NCI-H226 lung): > 100 µM
- GI50 (HL-60(TB) leukemia): 43.5 µM and > 100 µM
- TGI (HL-60(TB) leukemia): > 100 µM
- GI50 (CCRF-CEM leukemia): 47.2 µM and > 100 µM
- TGI (CCRF-CEM leukemia): > 100 µM
- GI50 (NCI/ADR-RES ovarian): 48.6 µM and > 100 µM
- TGI (NCI/ADR-RES ovarian): > 100 µM
- TGI (SR leukemia): > 100 µM
- GI50 (CAKI-1 renal): 34.5 µM and > 100 µM
- TGI (CAKI-1 renal): > 100 µM
- GI50 (PC-3 prostate): 25 µM and > 100 µM
- TGI (PC-3 prostate): 66.5 µM and > 100 µM

Structure (SMILES): CCOC(=O)Nc1ccc2c(c1)C(=O)N(CC)c1ccccc1O2
- GI50 (HT29 colon): 0.0791 µM
- TGI (HT29 colon): > 39.6 µM
- GI50 (RPMI-8226 leukemia): 0.126 µM
- TGI (RPMI-8226 leukemia): > 100 µM
- GI50 (LOX IMVI melanoma): 0.198 µM
- TGI (LOX IMVI melanoma): > 100 µM
- GI50 (NCI-H226 lung): 0.796 µM
- TGI (NCI-H226 lung): > 100 µM
- GI50 (HL-60(TB) leukemia): 0.0545 µM
- TGI (HL-60(TB) leukemia): 0.155 µM
- GI50 (CCRF-CEM leukemia): 0.0889 µM
- TGI (CCRF-CEM leukemia): > 100 µM
- GI50 (NCI/ADR-RES ovarian): 0.124 µM
- TGI (NCI/ADR-RES ovarian): > 100 µM
- GI50 (SR leukemia): 0.0479 µM
- GI50 (CAKI-1 renal): 0.179 µM
- TGI (CAKI-1 renal): > 100 µM
- GI50 (PC-3 prostate): 0.121 µM
- TGI (PC-3 prostate): > 100 µM

Structure (SMILES): O=c1oc2ccc(Cl)cc2c(=O)n1-c1ccc(F)cc1F
- GI50 (HT29 colon): 3.52 µM
- TGI (HT29 colon): 38.8 µM
- GI50 (RPMI-8226 leukemia): 0.994 µM
- TGI (RPMI-8226 leukemia): 4.18 µM
- GI50 (LOX IMVI melanoma): 2.4 µM
- TGI (LOX IMVI melanoma): 12.1 µM
- GI50 (NCI-H226 lung): 1.41 µM
- TGI (NCI-H226 lung): 5.87 µM
- GI50 (HL-60(TB) leukemia): 1.88 µM
- TGI (HL-60(TB) leukemia): 4.93 µM
- GI50 (CCRF-CEM leukemia): 3.32 µM
- TGI (CCRF-CEM leukemia): 18.1 µM
- GI50 (NCI/ADR-RES ovarian): 2.63 µM
- TGI (NCI/ADR-RES ovarian): 9.5 µM
- GI50 (SR leukemia): 1.04 µM
- TGI (SR leukemia): 9.75 µM
- GI50 (CAKI-1 renal): 1.45 µM
- TGI (CAKI-1 renal): 5.6 µM
- GI50 (PC-3 prostate): 1.07 µM
- TGI (PC-3 prostate): 4.03 µM

Structure (SMILES): C/C(CC(C)(C)N1CC1)=N\NC(=O)Nc1cccc2ccccc12
- GI50 (HT29 colon): 3.5 µM
- TGI (HT29 colon): 13.7 µM
- GI50 (RPMI-8226 leukemia): 2.71 µM
- TGI (RPMI-8226 leukemia): 8.74 µM
- GI50 (LOX IMVI melanoma): 3.13 µM
- TGI (LOX IMVI melanoma): 13.3 µM
- GI50 (NCI-H226 lung): 3.51 µM
- TGI (NCI-H226 lung): 14.9 µM
- GI50 (HL-60(TB) leukemia): 2.04 µM
- TGI (HL-60(TB) leukemia): 5 µM
- GI50 (CCRF-CEM leukemia): 2.37 µM
- TGI (CCRF-CEM leukemia): 20.6 µM
- GI50 (NCI/ADR-RES ovarian): 3.67 µM
- TGI (NCI/ADR-RES ovarian): 22.4 µM
- GI50 (SR leukemia): 2.02 µM
- TGI (SR leukemia): 6.13 µM
- GI50 (CAKI-1 renal): 3.73 µM
- TGI (CAKI-1 renal): 13.2 µM
- GI50 (PC-3 prostate): 5.32 µM
- TGI (PC-3 prostate): 23.2 µM

Structure (SMILES): COC(=O)C1=C(C(=O)ON)[C@@H]2C=C[C@@]1([C@@H](Cc1ccccc1)Nc1ccccc1)O2
- GI50 (HT29 colon): 1.89 µM
- TGI (HT29 colon): 3.97 µM
- GI50 (RPMI-8226 leukemia): 2.13 µM
- TGI (RPMI-8226 leukemia): 5.32 µM
- GI50 (LOX IMVI melanoma): 1.5 µM
- TGI (LOX IMVI melanoma): 2.88 µM
- GI50 (NCI-H226 lung): 14.5 µM
- TGI (NCI-H226 lung): 28.8 µM
- GI50 (HL-60(TB) leukemia): 1.45 µM
- TGI (HL-60(TB) leukemia): 6.18 µM
- GI50 (CCRF-CEM leukemia): 2.43 µM
- TGI (CCRF-CEM leukemia): 8.2 µM
- GI50 (NCI/ADR-RES ovarian): 17.4 µM
- TGI (NCI/ADR-RES ovarian): 35.9 µM
- GI50 (SR leukemia): 2.02 µM
- TGI (SR leukemia): 10.4 µM
- GI50 (CAKI-1 renal): 1.61 µM
- TGI (CAKI-1 renal): 2.96 µM
- GI50 (PC-3 prostate): 1.84 µM
- TGI (PC-3 prostate): 3.74 µM

Structure (SMILES): O=C1OC(c2ccc(Cl)cc2)=N/C1=C\c1ccccc1
- TGI (HT29 colon): > 100 µM
- TGI (RPMI-8226 leukemia): > 100 µM
- TGI (LOX IMVI melanoma): > 100 µM
- TGI (NCI-H226 lung): > 100 µM
- TGI (HL-60(TB) leukemia): > 100 µM
- TGI (CCRF-CEM leukemia): > 100 µM
- TGI (NCI/ADR-RES ovarian): > 100 µM
- TGI (SR leukemia): > 100 µM
- TGI (CAKI-1 renal): > 100 µM
- TGI (PC-3 prostate): > 100 µM

Structure (SMILES): COc1ccc(C2CC(c3ccc(OC)cc3O)=NN2c2ccc(S(N)(=O)=O)cc2)cc1 (stereo not given)
- GI50 (HT29 colon): 11.1 µM
- TGI (HT29 colon): > 100 µM
- GI50 (RPMI-8226 leukemia): 4.67 µM
- TGI (RPMI-8226 leukemia): > 100 µM
- GI50 (LOX IMVI melanoma): 14.1 µM
- TGI (LOX IMVI melanoma): > 100 µM
- GI50 (NCI-H226 lung): 11.7 µM
- TGI (NCI-H226 lung): > 100 µM
- GI50 (HL-60(TB) leukemia): 11.9 µM
- TGI (HL-60(TB) leukemia): 47.9 µM
- GI50 (CCRF-CEM leukemia): 16.1 µM
- TGI (CCRF-CEM leukemia): > 100 µM
- GI50 (NCI/ADR-RES ovarian): 8.09 µM
- TGI (NCI/ADR-RES ovarian): > 100 µM
- GI50 (SR leukemia): 1.47 µM
- TGI (SR leukemia): 9.61 µM
- GI50 (CAKI-1 renal): 6.74 µM
- TGI (CAKI-1 renal): 91.9 µM
- GI50 (PC-3 prostate): 4.29 µM
- TGI (PC-3 prostate): > 100 µM

Structure (SMILES): CC(=O)Nc1ccc(OC(C)=O)cc1
- GI50 (HT29 colon): < 0.01 µM
- TGI (HT29 colon): 0.776 µM
- GI50 (RPMI-8226 leukemia): < 0.01 µM
- TGI (RPMI-8226 leukemia): 9.64 µM
- GI50 (LOX IMVI melanoma): < 0.01 µM
- TGI (LOX IMVI melanoma): 4.14 µM
- GI50 (NCI-H226 lung): < 0.01 µM
- GI50 (HL-60(TB) leukemia): < 0.01 µM
- TGI (HL-60(TB) leukemia): < 0.01 µM
- GI50 (CCRF-CEM leukemia): < 0.01 µM
- TGI (CCRF-CEM leukemia): > 49.8 µM
- GI50 (NCI/ADR-RES ovarian): < 0.0105 µM
- TGI (NCI/ADR-RES ovarian): > 7.41 µM
- GI50 (SR leukemia): < 0.01 µM
- TGI (SR leukemia): 1.5 µM
- GI50 (CAKI-1 renal): 0.084 µM
- TGI (CAKI-1 renal): 28.8 µM
- GI50 (PC-3 prostate): < 0.01 µM
- TGI (PC-3 prostate): > 66.3 µM

Structure (SMILES): COc1c(C)c(OC)c(C(=O)CC(C)C)c(OC)c1C
- TGI (HT29 colon): > 100 µM
- TGI (RPMI-8226 leukemia): 73.1 µM
- TGI (LOX IMVI melanoma): > 100 µM
- TGI (NCI-H226 lung): > 100 µM
- TGI (HL-60(TB) leukemia): 50.5 µM
- TGI (CCRF-CEM leukemia): > 100 µM
- TGI (NCI/ADR-RES ovarian): > 100 µM
- TGI (SR leukemia): > 100 µM
- TGI (CAKI-1 renal): > 100 µM
- TGI (PC-3 prostate): > 100 µM

Structure (SMILES): CCc1cccc(NC(=O)Nc2ccc(Oc3ccc4nc(NC(=O)OC)[nH]c4c3)cc2)c1
- GI50 (HT29 colon): 2.04 µM
- TGI (HT29 colon): > 13.4 µM
- GI50 (RPMI-8226 leukemia): 12.5 µM
- TGI (RPMI-8226 leukemia): > 25 µM
- GI50 (LOX IMVI melanoma): 3.77 µM
- TGI (LOX IMVI melanoma): > 17.3 µM
- GI50 (NCI-H226 lung): 5.03 µM
- TGI (NCI-H226 lung): > 20.7 µM
- GI50 (HL-60(TB) leukemia): 2.79 µM
- TGI (HL-60(TB) leukemia): > 16.4 µM
- GI50 (CCRF-CEM leukemia): 6.2 µM
- TGI (CCRF-CEM leukemia): > 25 µM
- GI50 (NCI/ADR-RES ovarian): 10.5 µM
- TGI (NCI/ADR-RES ovarian): > 25 µM
- GI50 (SR leukemia): 0.149 µM
- TGI (SR leukemia): > 25 µM
- GI50 (CAKI-1 renal): > 15.4 µM
- TGI (CAKI-1 renal): > 25 µM
- GI50 (PC-3 prostate): 4.9 µM
- TGI (PC-3 prostate): 19.6 µM
